Consider one compound from patent US6825340B2, “Methods and reagents for inactivating ribonucleases” (Ambion, Inc., priority 1998, dated 2004).

Data set [1] is described as follows: DTNB test of DTT reducing strength (absorbance at 412 nm). Format: physicochemical. The text has this: DTT has low redox potential (−0.33 volts at pH 7.0) and is capable of maintaining monothiols effectively in the reduced form and of reducing disulfides quantitatively (Cleland, 1964). DTT acts as a protective agent for free sulfhydryl groups. […] DTT's reducing activity can be accurately assayed using 5, 5′-dithiobis (2-nitrobenzoic acid) or DTNB (Cleland, 1964). The reduction of DTNB mediated by DTT generates a yellow color whose absorbance can be measured at 412 nm using a spectrophotometer. RNase A, RNase 1 and RNase T1 all contain disulfide bonds (Ryle and Anfinesen, 1957; Barnard, 1969) and, therefore, are susceptible to reduction.
FIG. 5. DTT is oxidized by incubating at 65° C. for 6 days. DTT was made to 100 mM in water and incubated at 65° C. for 6 days. Fresh DTT and the heated 100 mM were diluted in water to different concentrations and subjected to the DTNB test. Absorbance at 412 nm indicates the reducing strength of the DTT.
To assess the effect that the ribonuclease mixture has on the oxidation of DTT, the RNase mixture at 1 μg/ml was incubated with DTT at 0.05, 0.1, 0.15, 0.2 and 0.25 mM at 60° C. for 20 minutes. 0.1 ml of each sample was added to 0.8 ml of 0.1 M KPO4 (pH 7.7) and 0.1 ml DTNB in 0.1 KPO4 (pH 7.7). Samples which were not treated with heat were also subjected to the DTNB assay for comparison. The DTNB reaction mixtures were incubated at 21° C. for 10 minutes to allow the yellow color to develop. Absorbances were measured at 412 nm. The results were that there was no difference in the reactivity of the DTT whether it had been used to inactivate the RNase mixture or not.
DTT was made to 100 mM in water and incubated at 65° C. for 6 days. This material was diluted to 50, 100, 150, 200, 250 micromolar in water and then assayed for its reducing strength using the DTNB test described in Example 7 and compared to the same concentrations of DTT made fresh in water. The absorbance at 412 nm directly correlates with reducing strength. The greater the absorbance, the greater the reducing power.

The next data set concerns the target T1, T3 RNA polymerase (Enterobacteria phage T3, UniProt P07659).
T1 construct: purchased Ambion, Inc
As to the kind of experiment: In vitro transcription reaction (MAXIscript kit), UTP[α-32P] incorporation. In kind it is biochemical. The settings on record: 20 mM reducing reagent. Here is the method: (§1) FIG. 3. […] Transcriptions were performed with T7, T3 and SP6 RNA polymerase in the presence and absence of 20 mM DTT. For each RNA polymerase reaction, pTRI-Xef DNA was the template and UTP[α^32P] was included to measure the efficiency of transcription. Duplicates were performed for each reaction. TCA precipitations were performed on each transcription reaction to measure the percent of the UTP[α^32P] incorporated into RNA.
(§2) The transcription reactions were based on the MAXIscript™ transcription kit (Ambion, Inc.). The following were assembled with or without 20 mM reducing reagent in a final volume of 18 μl: NTPs (0.5 mM each), 1 μg linearized DNA template, 2 μl 10 × transcription buffer, and 0.2 μl UTP [α-^32P] (800 Ci/mmol). The reaction mixtures were incubated 60° C. for 10 minutes and then 2 μl of the either SP6, T7 or T3 RNA polymerase (10 units/μl) were added to the reactions, incubated 30° C. for 60 minutes and then TCA precipitated to assess the incorporation of the radioactive label.

The target in the next data set is T2, SP6 RNA polymerase (Enterobacteria phage SP6, UniProt P06221).
T2 construct: purchased Ambion, Inc
T2 sequence (P06221 1-874): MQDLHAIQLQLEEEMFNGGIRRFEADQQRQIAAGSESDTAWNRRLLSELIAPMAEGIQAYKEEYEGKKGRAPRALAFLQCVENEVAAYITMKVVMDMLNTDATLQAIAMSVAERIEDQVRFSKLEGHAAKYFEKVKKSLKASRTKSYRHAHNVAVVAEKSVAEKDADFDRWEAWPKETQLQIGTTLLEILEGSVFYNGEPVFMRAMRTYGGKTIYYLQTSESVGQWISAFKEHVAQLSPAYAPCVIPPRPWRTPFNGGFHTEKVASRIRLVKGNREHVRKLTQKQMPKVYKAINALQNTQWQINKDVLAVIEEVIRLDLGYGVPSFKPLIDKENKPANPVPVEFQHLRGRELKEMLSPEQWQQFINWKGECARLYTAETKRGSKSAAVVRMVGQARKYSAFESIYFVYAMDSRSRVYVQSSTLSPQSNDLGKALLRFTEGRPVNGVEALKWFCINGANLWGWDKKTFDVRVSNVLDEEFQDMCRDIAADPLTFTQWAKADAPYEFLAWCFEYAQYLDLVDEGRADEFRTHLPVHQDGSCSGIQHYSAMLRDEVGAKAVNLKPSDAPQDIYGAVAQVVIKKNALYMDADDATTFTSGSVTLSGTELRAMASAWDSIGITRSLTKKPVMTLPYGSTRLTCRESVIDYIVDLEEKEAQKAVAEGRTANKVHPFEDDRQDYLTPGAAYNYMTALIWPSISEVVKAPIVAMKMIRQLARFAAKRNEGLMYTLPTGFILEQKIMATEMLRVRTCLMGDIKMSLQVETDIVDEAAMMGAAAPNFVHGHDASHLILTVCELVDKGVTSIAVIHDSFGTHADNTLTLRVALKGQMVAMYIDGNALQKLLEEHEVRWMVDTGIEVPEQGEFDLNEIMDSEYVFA
The data set is described as above. In kind it is biochemical. The settings on record: 20 mM reducing reagent. The procedure: as §1, §2

For a further data set, the target named is T3, T7 RNA polymerase (Escherichia phage T7, UniProt P00573).
T3 construct: purchased Ambion, Inc
The description is as above. The following applies: 20 mM reducing reagent. Format: biochemical. The procedure:
as §1, §2

“Also recorded” adds a separate entry of the source.

T1 sequence (P07659 whole entry): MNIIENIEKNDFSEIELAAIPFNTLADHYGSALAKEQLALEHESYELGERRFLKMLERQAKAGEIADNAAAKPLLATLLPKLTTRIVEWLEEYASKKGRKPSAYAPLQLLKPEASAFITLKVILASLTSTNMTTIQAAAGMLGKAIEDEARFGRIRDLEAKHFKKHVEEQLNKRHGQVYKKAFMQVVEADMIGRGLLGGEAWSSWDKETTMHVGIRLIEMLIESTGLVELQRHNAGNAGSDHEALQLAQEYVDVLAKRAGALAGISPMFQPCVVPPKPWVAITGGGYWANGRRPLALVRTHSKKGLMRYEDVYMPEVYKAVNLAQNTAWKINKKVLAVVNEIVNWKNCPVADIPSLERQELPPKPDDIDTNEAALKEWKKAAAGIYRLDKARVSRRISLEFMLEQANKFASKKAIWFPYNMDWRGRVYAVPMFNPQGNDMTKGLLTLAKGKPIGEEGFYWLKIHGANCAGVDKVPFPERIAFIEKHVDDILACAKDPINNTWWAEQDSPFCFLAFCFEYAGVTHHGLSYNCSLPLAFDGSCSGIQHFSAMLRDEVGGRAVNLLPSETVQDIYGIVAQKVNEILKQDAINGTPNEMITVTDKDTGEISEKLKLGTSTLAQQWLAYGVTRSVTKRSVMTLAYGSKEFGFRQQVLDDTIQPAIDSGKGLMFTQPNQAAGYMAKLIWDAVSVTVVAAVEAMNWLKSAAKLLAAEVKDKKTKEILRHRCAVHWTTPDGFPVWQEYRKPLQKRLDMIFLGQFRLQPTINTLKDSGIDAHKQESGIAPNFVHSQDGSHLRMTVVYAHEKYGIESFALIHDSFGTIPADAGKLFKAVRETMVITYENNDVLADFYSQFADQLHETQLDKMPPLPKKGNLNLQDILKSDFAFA
T3 sequence (P00573 whole entry): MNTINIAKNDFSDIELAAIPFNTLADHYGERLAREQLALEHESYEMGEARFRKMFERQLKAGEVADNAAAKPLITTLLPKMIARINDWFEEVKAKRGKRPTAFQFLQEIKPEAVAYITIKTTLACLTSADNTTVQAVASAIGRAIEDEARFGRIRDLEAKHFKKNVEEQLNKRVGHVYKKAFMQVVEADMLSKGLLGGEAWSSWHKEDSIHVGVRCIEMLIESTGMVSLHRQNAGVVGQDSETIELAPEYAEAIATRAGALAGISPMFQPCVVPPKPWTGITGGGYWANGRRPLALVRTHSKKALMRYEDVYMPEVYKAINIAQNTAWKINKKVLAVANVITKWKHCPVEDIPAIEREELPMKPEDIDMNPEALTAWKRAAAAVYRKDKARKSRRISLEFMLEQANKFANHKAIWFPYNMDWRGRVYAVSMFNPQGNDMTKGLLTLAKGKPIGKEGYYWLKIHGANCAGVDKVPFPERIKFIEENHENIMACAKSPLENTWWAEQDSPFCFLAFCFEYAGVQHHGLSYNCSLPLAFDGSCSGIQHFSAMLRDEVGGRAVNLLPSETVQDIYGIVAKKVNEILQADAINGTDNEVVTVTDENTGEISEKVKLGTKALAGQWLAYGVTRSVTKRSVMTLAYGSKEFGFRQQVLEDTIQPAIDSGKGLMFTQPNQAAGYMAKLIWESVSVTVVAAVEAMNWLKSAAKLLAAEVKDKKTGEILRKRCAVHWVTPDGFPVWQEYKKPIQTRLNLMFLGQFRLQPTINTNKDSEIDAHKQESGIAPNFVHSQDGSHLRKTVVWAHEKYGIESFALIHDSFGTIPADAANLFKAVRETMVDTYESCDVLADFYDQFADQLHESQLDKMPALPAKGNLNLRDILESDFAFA

In the case of `O[C@H](CS)[C@H](O)CS` [DTT, dithiothreitol], in data set [1] (DTT 100 mM in water incubated at 65° C. for 6 days), the “stability of DTT reducing strength” value was “completely oxidized”. The “reactivity of DTT after use to inactivate the RNase mixture vs non-reacted DTT” value in data set [1] (RNase mixture 1 μg/ml, DTT 0.05-0.25 mM, 60° C. for 20 minutes) is given as “no difference”. Besides, in data set [1] (sequential inactivations, 60° C. for 20 minutes), the “loss of DTT reducing power with each heating step” value is on record as “no detectable loss”. Moreover, the “inhibition of T3 RNA polymerase transcription” value against T3 RNA polymerase is listed as “does not inhibit; also recorded: None of the three polymerases were inhibited”. At SP6 RNA polymerase, the “inhibition of SP6 RNA polymerase transcription” value is “does not inhibit; also recorded: None of the three polymerases were inhibited”. Also, at T7 RNA polymerase, the “inhibition of T7 RNA polymerase transcription” value is on record as “does not inhibit; also recorded: None of the three polymerases were inhibited”.
